# Values of other authors in US8318452B2, “Solid culture medium for the detection and/or the species discrimination of glycopeptide-resistant enterococci” (priority 2006, dated 2012).
# Assays:
# [1] = test system: VanC type glycopeptide-resistant enterococci; conditions: Type of glycopeptide resistance VanC
# [2] = test system: VanB type glycopeptide-resistant enterococci; conditions: Type of glycopeptide resistance VanB
substance,measurement,setting,value
teicoplanin,MIC,[1],0.5 to 1 µg/mL
same,MIC,[2],0.5 to 1 µg/mL
